The values that follow come from patent publication US11878975B2, “Substituted indole compounds useful as TLR inhibitors” (BRISTOL-MYERS SQUIBB COMPANY, priority 2017, dated 2024).

What all share (type): cell-based
The target of one assay is T1, human TLR7 (Homo sapiens, UniProt Q9NYK1).
T1 construct: host or cells: HEK-Blue cells
T1 sequence (Q9NYK1 27-1049): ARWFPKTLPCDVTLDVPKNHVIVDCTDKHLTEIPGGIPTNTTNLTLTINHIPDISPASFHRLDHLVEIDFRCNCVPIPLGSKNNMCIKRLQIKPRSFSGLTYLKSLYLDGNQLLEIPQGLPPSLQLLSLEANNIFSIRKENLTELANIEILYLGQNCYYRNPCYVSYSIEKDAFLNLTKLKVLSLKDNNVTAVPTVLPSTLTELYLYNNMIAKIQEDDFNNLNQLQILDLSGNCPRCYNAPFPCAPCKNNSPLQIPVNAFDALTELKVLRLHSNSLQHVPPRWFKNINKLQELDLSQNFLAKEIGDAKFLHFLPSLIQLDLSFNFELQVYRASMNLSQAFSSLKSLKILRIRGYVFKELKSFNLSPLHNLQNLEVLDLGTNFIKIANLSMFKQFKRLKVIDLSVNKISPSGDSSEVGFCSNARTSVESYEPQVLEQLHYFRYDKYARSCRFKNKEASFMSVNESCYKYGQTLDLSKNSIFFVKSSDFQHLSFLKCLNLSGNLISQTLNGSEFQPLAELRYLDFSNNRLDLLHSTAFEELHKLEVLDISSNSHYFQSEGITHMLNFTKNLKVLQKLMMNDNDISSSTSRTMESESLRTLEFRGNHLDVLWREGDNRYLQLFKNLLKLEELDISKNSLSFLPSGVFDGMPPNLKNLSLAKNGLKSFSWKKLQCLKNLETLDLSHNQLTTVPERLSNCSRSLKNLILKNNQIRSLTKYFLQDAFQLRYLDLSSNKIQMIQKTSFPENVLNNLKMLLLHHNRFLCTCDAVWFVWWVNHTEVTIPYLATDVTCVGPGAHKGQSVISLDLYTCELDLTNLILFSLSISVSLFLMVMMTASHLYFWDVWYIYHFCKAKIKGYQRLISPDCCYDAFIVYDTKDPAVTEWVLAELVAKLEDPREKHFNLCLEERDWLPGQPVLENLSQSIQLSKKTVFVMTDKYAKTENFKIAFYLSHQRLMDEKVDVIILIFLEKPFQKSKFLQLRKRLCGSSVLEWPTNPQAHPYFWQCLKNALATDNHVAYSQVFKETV
The assay can be described thus: TLR7 inhibition reporter assay (HEK-Blue cells, SEAP reporter, gardiquimod stimulation). The note with it: HEK-Blue cells overexpressing human TLR7, SEAP reporter, gardiquimod 7.5 μM. A digest of the protocol: (§1)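 Percent inhibition is derived from SEAP signal, scaled between agonist-plus-DMSO wells and wells given a known inhibitor. Test compounds (0.05 nM–50 μM) are pre-incubated 30 min at room temperature before agonist addition (TLR7: 7.5 μM gardiquimod; TLR8: 15.9 μM R848; TLR9: 5 nM ODN2006) and 22 h culture at 37 °C.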

The target in another assay is T2, human TLR8 (Homo sapiens, UniProt Q9NR97).
T2 construct: host or cells: HEK-Blue cells
T2 sequence (Q9NR97 27-1041): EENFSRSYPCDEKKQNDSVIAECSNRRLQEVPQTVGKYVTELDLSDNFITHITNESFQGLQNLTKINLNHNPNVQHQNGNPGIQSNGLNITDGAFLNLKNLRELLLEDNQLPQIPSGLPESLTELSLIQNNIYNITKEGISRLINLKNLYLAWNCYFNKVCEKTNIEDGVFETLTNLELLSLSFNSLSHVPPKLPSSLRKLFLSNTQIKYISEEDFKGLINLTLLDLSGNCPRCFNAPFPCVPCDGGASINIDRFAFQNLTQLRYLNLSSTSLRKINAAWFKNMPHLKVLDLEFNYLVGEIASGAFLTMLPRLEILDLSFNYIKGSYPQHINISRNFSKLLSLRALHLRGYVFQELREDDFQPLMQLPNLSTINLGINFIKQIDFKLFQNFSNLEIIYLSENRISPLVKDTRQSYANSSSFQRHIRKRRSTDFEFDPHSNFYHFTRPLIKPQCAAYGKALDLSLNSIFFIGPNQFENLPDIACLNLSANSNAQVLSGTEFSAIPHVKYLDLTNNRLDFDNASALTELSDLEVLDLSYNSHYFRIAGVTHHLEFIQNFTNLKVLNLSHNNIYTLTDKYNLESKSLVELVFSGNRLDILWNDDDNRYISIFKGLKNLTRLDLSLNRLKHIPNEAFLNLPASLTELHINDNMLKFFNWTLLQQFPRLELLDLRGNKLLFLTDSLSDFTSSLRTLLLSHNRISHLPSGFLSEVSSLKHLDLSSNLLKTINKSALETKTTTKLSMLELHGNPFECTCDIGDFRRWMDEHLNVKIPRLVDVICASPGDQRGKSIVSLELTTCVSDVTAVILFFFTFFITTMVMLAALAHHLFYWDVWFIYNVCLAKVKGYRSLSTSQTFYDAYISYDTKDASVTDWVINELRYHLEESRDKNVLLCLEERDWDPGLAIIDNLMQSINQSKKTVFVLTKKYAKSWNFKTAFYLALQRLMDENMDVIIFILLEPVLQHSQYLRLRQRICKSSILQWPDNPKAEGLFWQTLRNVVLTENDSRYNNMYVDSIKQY
Put plainly: TLR8 inhibition reporter assay (HEK-Blue cells, SEAP reporter, R848 stimulation). The note with it: HEK-Blue cells overexpressing human TLR8, SEAP reporter, R848 15.9 μM. Summed up:
as §1

For a further assay, the target named is T3, human TLR9 (Homo sapiens, UniProt Q9NR96).
T3 construct: host or cells: HEK-Blue cells
T3 sequence (Q9NR96 26-1032): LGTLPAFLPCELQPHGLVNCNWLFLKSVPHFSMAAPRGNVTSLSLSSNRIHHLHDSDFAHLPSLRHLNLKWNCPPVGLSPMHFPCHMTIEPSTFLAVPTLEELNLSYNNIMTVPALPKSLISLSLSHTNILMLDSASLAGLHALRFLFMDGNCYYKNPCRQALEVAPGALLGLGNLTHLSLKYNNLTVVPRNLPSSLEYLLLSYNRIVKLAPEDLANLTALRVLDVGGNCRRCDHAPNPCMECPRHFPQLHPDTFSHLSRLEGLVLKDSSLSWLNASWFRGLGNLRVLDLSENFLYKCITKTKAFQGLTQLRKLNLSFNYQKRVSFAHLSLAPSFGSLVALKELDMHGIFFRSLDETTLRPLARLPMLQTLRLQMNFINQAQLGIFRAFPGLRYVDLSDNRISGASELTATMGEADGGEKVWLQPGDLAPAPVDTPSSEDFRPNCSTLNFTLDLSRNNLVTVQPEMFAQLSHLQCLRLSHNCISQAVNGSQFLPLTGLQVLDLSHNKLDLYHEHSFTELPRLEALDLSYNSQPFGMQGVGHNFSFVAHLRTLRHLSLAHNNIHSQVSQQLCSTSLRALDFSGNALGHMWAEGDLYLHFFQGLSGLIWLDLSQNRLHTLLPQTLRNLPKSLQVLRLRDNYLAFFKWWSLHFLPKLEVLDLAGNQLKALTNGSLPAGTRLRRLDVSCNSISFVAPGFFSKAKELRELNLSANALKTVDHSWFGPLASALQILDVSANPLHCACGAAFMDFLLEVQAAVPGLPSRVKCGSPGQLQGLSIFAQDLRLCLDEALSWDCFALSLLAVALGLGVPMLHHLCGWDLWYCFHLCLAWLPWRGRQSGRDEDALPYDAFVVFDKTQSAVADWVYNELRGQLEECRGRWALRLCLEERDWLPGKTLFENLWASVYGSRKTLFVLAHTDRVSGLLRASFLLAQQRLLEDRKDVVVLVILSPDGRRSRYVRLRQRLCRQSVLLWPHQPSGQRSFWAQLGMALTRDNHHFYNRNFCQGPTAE
The assay can be described thus: TLR9 inhibition reporter assay (HEK-Blue cells, SEAP reporter, ODN2006 stimulation). The note with it: HEK-Blue cells overexpressing human TLR9, SEAP reporter, ODN2006 5 nM. Summed up: as §1

Take `COc1cc(-c2[nH]c3ccc(C4CC(NCC(=O)N(C)C)C4)cc3c2C(C)C)cn2ncnc12` (stereo not drawn) [Example 570]: the figures for the IC50 against human TLR7, at human TLR8 and on human TLR9 were 0.93 nM, 0.9 nM and 3450 nM, respectively.

`COc1cc(-c2[nH]c3ccc(C4CC(NCCS(C)(=O)=O)C4)cc3c2C(C)C)cn2ncnc12` (stereo not drawn) [Example 571]: the IC50 at human TLR7 turned out to be 0.53 nM; at human TLR8, 0.33 nM; on human TLR9 it was 2320 nM.

As to `Cc1c(-c2[nH]c3ccc(C4CC(NCCS(C)(=O)=O)C4)cc3c2C(C)C)cn2ncnc2c1C` (stereo not drawn) [Example 572], the values for the IC50 against human TLR7, against human TLR8 and against human TLR9 were 0.93 nM, 0.31 nM and 4960 nM, respectively.

With `Cc1c(-c2[nH]c3ccc(C4CC(NC(=O)CN(C)C)C4)cc3c2C(C)C)cn2ncnc2c1C` (stereo not drawn) [Example 573], the figures for the IC50 at human TLR7, on human TLR8 and against human TLR9 were 3 nM, 2.3 nM and 12600 nM, respectively.

Consider `Cc1c(-c2[nH]c3ccc(C4CC(N(C)C)C4)cc3c2C(C)C)cn2ncnc2c1C` (stereo not drawn) [Example 574], for which the concentration for half-maximal inhibition (IC50) against human TLR7 amounted to 1 nM; against human TLR8, 0.58 nM; on human TLR9, 4250 nM.

For the compound `Cc1c(-c2[nH]c3ccc(C4CC(NC5COC5)C4)cc3c2C(C)C)cn2ncnc2c1C` (stereo not drawn) [Example 575], the results for the IC50 at human TLR7, against human TLR8 and at human TLR9 were 4 nM, 1.1 nM and 22300 nM, respectively.

As for `Cc1c(-c2[nH]c3ccc(C4CC(NC(=O)CN(C)C)C4)cc3c2C(C)C)cn2ncnc2c1C` (stereo not drawn) [Example 578], the IC50 against human TLR7 worked out at 0.59 nM; against human TLR8, 0.61 nM; at human TLR9, 6440 nM.

Regarding `COc1cc(-c2[nH]c3ccc(C4CC(NC5COC5)C4)cc3c2C(C)C)cn2ncnc12` (stereo not drawn) [Example 579], the IC50 was 1 nM against human TLR7, 0.73 nM on human TLR8 and 7410 nM against human TLR9.

For the compound `Cc1c(-c2[nH]c3ccc(C4CC(N(C)CCS(C)(=O)=O)C4)cc3c2C(C)C)cn2ncnc2c1C` (stereo not drawn) [Example 582], the results for the IC50 at human TLR7, against human TLR8 and on human TLR9 were 3 nM, 0.56 nM and 35700 nM, respectively.

Turning to `COc1cc(-c2[nH]c3ccc(C4CC(N(C)CCS(C)(=O)=O)C4)cc3c2C(C)C)cn2ncnc12` (stereo not drawn) [Example 583], the IC50 at human TLR7 is 0.99 nM; against human TLR8, 0.32 nM; at human TLR9, 31000 nM.

On to `Cc1c(-c2[nH]c3ccc(C4CC(N(C)C(=O)CN(C)C)C4)cc3c2C(C)C)cn2ncnc2c1C` (stereo not drawn) [Example 584], for which the IC50 against human TLR7 was 2 nM; at human TLR8, 3.8 nM; against human TLR9, 5650 nM.

As for `COc1cc(-c2[nH]c3ccc(C4CC(N(C)C(=O)CN(C)C)C4)cc3c2C(C)C)cn2ncnc12` (stereo not drawn) [Example 585], the figures for the IC50 against human TLR7, against human TLR8 and against human TLR9 were 0.55 nM, 2.9 nM and 2810 nM, respectively.

Consider `Cc1c(-c2[nH]c3ccc(C4CC(N(C)CCS(C)(=O)=O)C4)cc3c2C(C)C)cn2ncnc2c1C` (stereo not drawn) [Example 586], for which the IC50 on human TLR7 was 13 nM; at human TLR8, 3.8 nM; at human TLR9, 44000 nM.

Turning to `COc1cc(-c2[nH]c3ccc(C4CC(N(C)CCS(C)(=O)=O)C4)cc3c2C(C)C)cn2ncnc12` (stereo not drawn) [Example 587], the half-maximal inhibitory concentration (IC50) amounted to 5 nM at human TLR7, 5.7 nM on human TLR8 and 21300 nM at human TLR9.

In the case of `COc1cc(-c2[nH]c3ccc(C4CC(N(C)C(=O)CN(C)C)C4)cc3c2C(C)C)cn2ncnc12` (stereo not drawn) [Example 588], the IC50 on human TLR7 was 0.4 nM; on human TLR8, 1.4 nM; against human TLR9, 1870 nM.

In the case of `Cc1c(-c2[nH]c3ccc(C4CC(N(C)C(=O)CN(C)C)C4)cc3c2C(C)C)cn2ncnc2c1C` (stereo not drawn) [Example 589], the IC50 is 2 nM at human TLR7, 2.8 nM against human TLR8 and 5410 nM at human TLR9.

As for `Cc1cc(-c2[nH]c3ccc(C4CCNC4)cc3c2C(C)C)cc(C)n1` (stereo not drawn) [Example 590], the IC50 against human TLR7 was determined as 5 nM; on human TLR8, 0.5 nM; against human TLR9 it was 930 nM.

`Cc1cc(-c2[nH]c3ccc(C4CCN(C(=O)CN(C)C)C4)cc3c2C(C)C)cc(C)n1` (stereo not drawn) [Example 591]: the IC50 against human TLR7 was found to be 8 nM; against human TLR8, 8.7 nM; against human TLR9, 1010 nM.

On to `COc1ccc(-c2[nH]c3ccc(C4CCCNC4)cc3c2C(C)C)cc1OC` (stereo not drawn) [Example 592], for which the IC50 against human TLR7 worked out at 31 nM; at human TLR8 it was 10 nM; at human TLR9, 1470 nM.
